Legend:
[1] = target: T1, tmCBP (Thermotoga maritima cellobiose-binding protein) (Thermotoga maritima, UniProt Q9WXN8); assay: CD thermal denaturation at […] nm; conditions: Tm without ligand 94.8 °C; 1 mM ligand, 0.5 μM protein, 2 M guanidine hydrochloride, 10 mM Tris-HCl pH 8.0, 40 mM NaCl
T1 construct: gene TM_0031; recombinant, E. coli BL21-RIL, nickel chelation purification (tagged); 582 residues modelled; ligand-free protein from Enfor's minimal medium

[2] = target: T1, tmCBP (Thermotoga maritima cellobiose-binding protein); assay: small-angle neutron scattering, ligand-induced closure; conditions: 5 mM ligand, 20 mM Tris pH 8.0, 40 mM NaCl, D2O, 20 °C
[3] = target: the molecule itself; assay: small-angle neutron scattering (SANS); tmCBP at 4.2-16.7 mg/mL in 20 mM Tris pH 8.0, 40 mM NaCl, 100% D2O, 20°C; molecular mass from the intensity at zero scattering angle; apo protein, and with 5 mM cellobiose added (associations then alleviated)

## OC[C@H]1O[C@@H](O[C@H]2[C@H](O)[C@@H](CO)OC(O)[C@@H]2O)[C@H](O)[C@@H](O)[C@@H]1O (stereo partly shown) [LR2, laminaribiose]
[1]
  Tm: 99.2 °C

## OC[C@H]1O[C@@H](O[C@@H]2[C@@H](O)[C@H](O[C@@H]3[C@@H](O)[C@H](O[C@@H]4[C@@H](O)[C@H](O[C@H]5[C@H](O)[C@@H](CO)OC(O)[C@@H]5O)O[C@H](CO)[C@H]4O)O[C@H](CO)[C@H]3O)O[C@H](CO)[C@H]2O)[C@H](O)[C@@H](O)[C@@H]1O (stereo partly shown) [LR5, laminaripentaose]
[1]
  Tm: 105.2 °C

## OC[C@H]1O[C@@H](O[C@H]2[C@H](O)[C@@H](O)C(O)O[C@@H]2CO)[C@H](O)[C@@H](O)[C@@H]1O (stereo partly shown) [cellobiose]
[2]
  small-angle neutron scattering, ligand-induced closure: Upon addition of ligand the protein undergoes large scale conformational changes

B1: Thermotoga maritima cellobiose binding protein (natural protein)
chain: QVSLPREDTVYIGGALWGPATTWNLYAPQSTWGTDQFMYLPAFQYDLGRDAWIPVIAERYEFVDDKTLRIYIRPEARWSDGVPITADDFVYALELTKELGIGPGGGWDTYIEYVKAVDTKVVEFKAKEENLNYFQFLSYSLGAQPMPKHVYERIRAQMNIKDWINDKPEEQVVSGPYKLYYYDPNIVVYQRVDDWWGKDIFGLPRPKYLAHVIYKDNPSASLAFERGDIDWNGLFIPSVWELWEKKGLPVGTWYKKEPYFIPDGVGFVYVNNTKPGLSDPAVRKAIAYAIPYNEMLKKAYFGYGSQAHPSMVIDLFEPYKQYIDYELAKKTFGTEDGRIPFDLDMANKILDEAGYKKGPDGVRVGPDGTKLGPYTISVPYGWTDWMMMCEMIAKNLRSIGIDVKTEFPDFSVWADRMTKGTFDLIISWSVGPSFDHPFNIYRFVLDKRLSKPVGEVTWAGDWERYDNDEVVELLDKAVSTLDPEVRKQAYFRIQQIIYRDMPSIPAFYTAHWYEYSTKYWINWPSEDNPAWFRPSPWHADAWPTLFIISKKSDPQPVPSWLGTVDEGGIEIPTAKIFEDLQKATM
notes: final crystal models hold 582 amino acids; expected mass 68.7 kDa; the apo (ligand-free) form was used for the SANS measurement of self-association; also called tmCBP
[3]
  binding result: binds

Reference: article PMC3850815, “Molecular details of ligand selectivity determinants in a promiscuous β-glucan periplasmic binding protein” (BMC Structural Biology, 2013)
